Legend:
Format in all cases: physicochemical
[1] = Method A: solubility of active ingredient in solvent by NMR spectroscopy of a saturated solution; settings: for Active Ingredient Solubility: Dicamba Acid: dicamba acid dissolved in the named solvent; for Active Ingredient Solubility: Nitrapyrin: nitrapyrin dissolved in the named solvent; for Active Ingredient Solubility: 2,4-D Acid: 2,4-dichlorophenoxyacetic acid dissolved in the named solvent; for Active Ingredient Solubility: MCPA: 2-methyl-4-chlorophenoxyacetic acid dissolved in the named solvent; for Active Ingredient Solubility: NBPT: N-(n-butyl)thiophosphoric triamide dissolved in the named solvent; for Active Ingredient Solubility: Bifenthrin: bifenthrin dissolved in the named solvent; for Active Ingredient Solubility: Tebuconazole: tebuconazole dissolved in the named solvent
Procedure: (§1) The solubilities of active ingredients in the Ether Ketone Solvents and Comparative Solvents are determined on a saturated solution of a given active ingredient in a given solvent using NMR spectroscopy (Method A, as described below), or by visual evaluation of a concentration ladder of a given active ingredient in a given solvent (Method B, as described below).
Method A: Solubility Determination by NMR Spectroscopy
A saturated solution of a given active ingredient in a solvent is prepared by initially combining the active ingredient (0.8 g) and solvent (1.5 mL) in a vial and stirring vigorously for at least 24 hours. If a homogeneous solution is obtained, additional active ingredient is added until a significant amount of solid remains out of solution. The mixtures (˜0.25 mL) are then filtered with a PTFE syringe filter (0.45 μm) into an NMR tube that contained C6D6 (0.5 mL). The NMR tubes are capped and analyzed on Varian 400 NMR spectrometer equipped with an auto sampler. Proton NMR spectra are referenced to the residual proton peak in the deuterated solvent. Spectra used for quantitation are collected with a 180 second delay between pulses. Spectra are processed in MestReNova (version 11.0.4-18998) by baseline (Bernstein Polynomials) and phase correcting each spectrum followed by integration of all well-resolved solvent and active resonances. Active ingredient weight percentages are estimated by the following formula:
(§2) [formula] When possible, several well-resolved peaks are used for both solvent and active ingredient, and averaged to provide an estimation of variability in the measurement. Method B: Solubility Determination by Visual Evaluation

[2] = Method B: solubility of active ingredient in solvent by visual evaluation of a concentration ladder; settings: Method B (visual, 24 hours, 21° C.); for Active Ingredient Solubility: 2,4-D Acid: 2,4-dichlorophenoxyacetic acid dissolved in the named solvent; for Active Ingredient Solubility: MCPA: 2-methyl-4-chlorophenoxyacetic acid dissolved in the named solvent; for Active Ingredient Solubility: NBPT: N-(n-butyl)thiophosphoric triamide dissolved in the named solvent; for Active Ingredient Solubility: Bifenthrin: bifenthrin dissolved in the named solvent; for Active Ingredient Solubility: Tebuconazole: tebuconazole dissolved in the named solvent
Procedure: as §1, §2
Four-milliliter (mL) vials are charged with active ingredient (10 to 50 wt %), a stir bar, and solvent (90 to 50 wt %). The vials are capped and taped to seal. The vials are secured in a vial rack and shaken on a laboratory shaker for 24 hours at ambient lab temperature of 21° C. and 51% humidity. After 24 hours each sample set is evaluated for solubility of solid.

[3] = Solubility of Ether Ketone Solvent in water (dropwise addition, weighing); settings: lab temperature 30° C.
Procedure: The solubilities of certain of the Ether Ketone Solvents in water are determined by adding water (˜10 to 50 grams) to a tared vial equipped with a stir bar. The weights of water are noted. The specified solvent is added dropwise using a 10 μL syringe until the mixture appeared to have solvent droplets suspended in the water. The mixture is weighed again and the weight percent solubility of the Ether Ketone Solvent in water is calculated.
(§3) The solubilities of water in certain of the Ether Ketone Solvents are also evaluated. A vial is charged with 5 grams of the specified solvent, and 3 Å activated molecular sieves (˜300 mg) are added. The vial is capped and the solvent left to dry for several days. The mixtures are filtered using a 0.2 μm syringe filter into a tared 20 mL vial and the weights are noted. Water is then added using a 10 μL syringe until the mixture appeared to have water droplets on the bottom of the vial. The mixture is weighed again and the weight percent solubility of water in the Ether Ketone solvent is calculated. The temperature in the lab is 30° C. at the time of the water solubility measurements.

[4] = Solubility of water in Ether Ketone Solvent (dropwise addition, weighing); settings: water in dried solvent; lab temperature 30° C.
Procedure: as §3

## CC(=O)c1ccccc1 [Acetophenone]
[1]
  Active Ingredient Solubility: Dicamba Acid: 49.8 wt %
  Active Ingredient Solubility: Nitrapyrin: 55.4 wt %
[2]
  Active Ingredient Solubility: 2,4-D Acid: <30 wt %
  Active Ingredient Solubility: MCPA: <30 wt %
  Active Ingredient Solubility: NBPT: <30 wt %
  Active Ingredient Solubility: Bifenthrin: <50 wt %
  Active Ingredient Solubility: Tebuconazole: <30 wt %

## CCCCOCC(=O)CC [BnB Ketone, 1-Butoxy-2-butanone]
[3]
  Solubility In Water: 0.43 wt %
[1]
  Active Ingredient Solubility: 2,4-D Acid: 15.6 wt %
  Active Ingredient Solubility: MCPA: 21.6 wt %
  Active Ingredient Solubility: NBPT: 21.0 wt %
  Active Ingredient Solubility: Bifenthrin: 42.6 wt %
  Active Ingredient Solubility: Dicamba Acid: 48.9 wt %
  Active Ingredient Solubility: Nitrapyrin: 55.0 wt %
  Active Ingredient Solubility: Tebuconazole: 16.9 wt %
[4]
  Solubility Water In: 0.11 wt %

## CCCCCCOCC(=O)CC [BnH Ketone, 1-Hexyloxy-2-butanone]
[3]
  Solubility In Water: 0.22 wt %
[1]
  Active Ingredient Solubility: 2,4-D Acid: 12.8 wt %
  Active Ingredient Solubility: MCPA: 17.5 wt %
  Active Ingredient Solubility: NBPT: 13.6 wt %
  Active Ingredient Solubility: Bifenthrin: 37.3 wt %
  Active Ingredient Solubility: Dicamba Acid: 42.5 wt %
  Active Ingredient Solubility: Nitrapyrin: 46.2 wt %
  Active Ingredient Solubility: Tebuconazole: 13.5 wt %
[4]
  Solubility Water In: 0.02 wt %

## CCCCCCCCOCC(=O)CC [BnO Ketone, 1-Octyloxy-2-butanone]
[1]
  Active Ingredient Solubility: 2,4-D Acid: 10.2 wt %
  Active Ingredient Solubility: MCPA: 15.3 wt %
  Active Ingredient Solubility: NBPT: 10.0 wt %
  Active Ingredient Solubility: Bifenthrin: 33.9 wt %
  Active Ingredient Solubility: Dicamba Acid: 36.5 wt %
  Active Ingredient Solubility: Nitrapyrin: 41.6 wt %
  Active Ingredient Solubility: Tebuconazole: 12.0 wt %

## O=C1CCCCC1 [Cyclohexanone]
[1]
  Active Ingredient Solubility: Dicamba Acid: 62.4 wt %
  Active Ingredient Solubility: Nitrapyrin: 65.2 wt %
[2]
  Active Ingredient Solubility: 2,4-D Acid: <40 wt %
  Active Ingredient Solubility: MCPA: <50 wt %
  Active Ingredient Solubility: NBPT: <50 wt %
  Active Ingredient Solubility: Bifenthrin: Sol. at 50 wt %
  Active Ingredient Solubility: Tebuconazole: <50 wt %

## CCCCOCC(CC)OCC(=O)CC (stereo not drawn) [DBnB Ketone, 1-((1-Butoxy-2-butanyl)oxy)-2-butanone]
[1]
  Active Ingredient Solubility: 2,4-D Acid: 13.2 wt %
  Active Ingredient Solubility: MCPA: 17.1 wt %
  Active Ingredient Solubility: NBPT: 15.7 wt %
  Active Ingredient Solubility: Bifenthrin: 34.7 wt %
  Active Ingredient Solubility: Dicamba Acid: 45.6 wt %
  Active Ingredient Solubility: Nitrapyrin: 42.6 wt %
  Active Ingredient Solubility: Tebuconazole: 10.5 wt %

## CCCCCCOCC(CC)OCC(=O)CC (stereo not drawn) [DBnH Ketone, 1-((1-(Hexyloxy)-2-butanyl)oxy)-2-butanone]
[1]
  Active Ingredient Solubility: 2,4-D Acid: 10.9 wt %
  Active Ingredient Solubility: MCPA: 17.2 wt %
  Active Ingredient Solubility: NBPT: 10.5 wt %
  Active Ingredient Solubility: Bifenthrin: 33.8 wt %
  Active Ingredient Solubility: Dicamba Acid: 42.5 wt %
  Active Ingredient Solubility: Nitrapyrin: 39.8 wt %
  Active Ingredient Solubility: Tebuconazole: 11.2 wt %

## CCCCOCC(C)OCC(C)=O (stereo not drawn) [DPnB Ketone, 1-((1-(Butoxy)-2-propanyl)oxy)-2-propanone]
[3]
  Solubility In Water: 0.20 wt %
[1]
  Active Ingredient Solubility: 2,4-D Acid: 18.3 wt %
  Active Ingredient Solubility: MCPA: 23.7 wt %
  Active Ingredient Solubility: NBPT: 25.5 wt %
  Active Ingredient Solubility: Bifenthrin: 33.4 wt %
  Active Ingredient Solubility: Dicamba Acid: 52.7 wt %
  Active Ingredient Solubility: Nitrapyrin: 45.4 wt %
  Active Ingredient Solubility: Tebuconazole: 15.0 wt %
[4]
  Solubility Water In: 0.03 wt %

## CCCCCCOCC(C)OCC(C)=O (stereo not drawn) [DPnH Ketone, 1-((1-(Hexyloxy)-2-propanyl)oxy)-2-propanone]
[3]
  Solubility In Water: 0.22 wt %
[1]
  Active Ingredient Solubility: 2,4-D Acid: 16.4 wt %
  Active Ingredient Solubility: MCPA: 22.1 wt %
  Active Ingredient Solubility: NBPT: 25.3 wt %
  Active Ingredient Solubility: Bifenthrin: 35.5 wt %
  Active Ingredient Solubility: Dicamba Acid: 48.4 wt %
  Active Ingredient Solubility: Nitrapyrin: 39.0 wt %
  Active Ingredient Solubility: Tebuconazole: 12.5 wt %
[4]
  Solubility Water In: 0.03 wt %

## CCCCCOCC(C)OCC(C)=O (stereo not drawn) [DPnPent Ketone, 1-((1-(Pentyloxy)-2-propanyl)oxy)-2-propanone]
[1]
  Active Ingredient Solubility: 2,4-D Acid: 15.0 wt %
  Active Ingredient Solubility: MCPA: 22.0 wt %
  Active Ingredient Solubility: NBPT: 24.4 wt %
  Active Ingredient Solubility: Bifenthrin: 31.8 wt %
  Active Ingredient Solubility: Dicamba Acid: 48.7 wt %
  Active Ingredient Solubility: Nitrapyrin: 41.8 wt %
  Active Ingredient Solubility: Tebuconazole: 12.0 wt %

## CCCCOCC(C)=O [PnB Ketone, 1-Butoxy-2-propanone]
[3]
  Solubility In Water: 0.20 wt %
[1]
  Active Ingredient Solubility: 2,4-D Acid: 20.2 wt %
  Active Ingredient Solubility: MCPA: 26.8 wt %
  Active Ingredient Solubility: NBPT: 32.8 wt %
  Active Ingredient Solubility: Bifenthrin: 43.3 wt %
  Active Ingredient Solubility: Dicamba Acid: 54.0 wt %
  Active Ingredient Solubility: Nitrapyrin: 53.4 wt %
  Active Ingredient Solubility: Tebuconazole: 25.1 wt %
[4]
  Solubility Water In: 0.005 wt %

## CCCCCCCCOCC(C)=O [PnO Ketone, 1-Octyloxy-2-propanone]
[1]
  Active Ingredient Solubility: 2,4-D Acid: 12.6 wt %
  Active Ingredient Solubility: MCPA: 17.1 wt %
  Active Ingredient Solubility: NBPT: 15.9 wt %
  Active Ingredient Solubility: Bifenthrin: 35.4 wt %
  Active Ingredient Solubility: Dicamba Acid: 40.6 wt %
  Active Ingredient Solubility: Nitrapyrin: 42.9 wt %
  Active Ingredient Solubility: Tebuconazole: 12.5 wt %

## CCCCCOCC(C)=O [PnPent Ketone, 1-Pentyloxy-2-propanone]
[1]
  Active Ingredient Solubility: 2,4-D Acid: 17.3 wt %
  Active Ingredient Solubility: MCPA: 22.9 wt %
  Active Ingredient Solubility: NBPT: 24.2 wt %
  Active Ingredient Solubility: Bifenthrin: 40.2 wt %
  Active Ingredient Solubility: Dicamba Acid: 49.1 wt %
  Active Ingredient Solubility: Nitrapyrin: 49.0 wt %
  Active Ingredient Solubility: Tebuconazole: 16.7 wt %

## CCCCOCC(C)OCC(C)OCC(C)=O (stereo not drawn) [TPnB Ketone, 1-((1-((1-Butoxy-2-propanyl)oxy)-2-propanyl)oxy)-2-propanone]
[1]
  Active Ingredient Solubility: 2,4-D Acid: 16.3 wt %
  Active Ingredient Solubility: MCPA: 22.5 wt %
  Active Ingredient Solubility: NBPT: 22.1 wt %
  Active Ingredient Solubility: Bifenthrin: 13.0 wt %
  Active Ingredient Solubility: Dicamba Acid: 49.7 wt %
  Active Ingredient Solubility: Nitrapyrin: 37.0 wt %
  Active Ingredient Solubility: Tebuconazole: 10.8 wt %
